Data from patent publication US5686482A, “N-(3-pyrrolidinyl) benzamide derivative” (priority 1994, dated 1997).
Like-named read-outs stand apart in the source and are kept apart here.

What was measured:
[1] = tested on: schizophrenia patients; details: cited from earlier work
[2] = tested on: apomorphine-induced climbing behavior; assay: antagonism test on apomorphine-induced climbing behavior; type: in vivo; details: Mus musculus; SC administration, 15 minutes before apomorphine 2 mg/kg SC; ICR mice; measured during 30 minutes
Experimental: 2) Antagonism test on apomorphine-induced climbing behavior
Each test compound was administered to ICR mice (body weight, around 35 g; Japan SLC) by subcutaneous injection and, after 15 minutes, apomorphine (2 mg/kg) was subcutaneously injected.

[3] = target: T1, D2 receptor (Rattus norvegicus, UniProt P61169); assay: receptor binding test, D2 receptor; details: cloned receptor membrane, [125I]iodosulpride or [3H]YM-09151-2, 25° C., 1 hour
T1 construct: expressed in transfected cells
T1 sequence (P61169 whole entry): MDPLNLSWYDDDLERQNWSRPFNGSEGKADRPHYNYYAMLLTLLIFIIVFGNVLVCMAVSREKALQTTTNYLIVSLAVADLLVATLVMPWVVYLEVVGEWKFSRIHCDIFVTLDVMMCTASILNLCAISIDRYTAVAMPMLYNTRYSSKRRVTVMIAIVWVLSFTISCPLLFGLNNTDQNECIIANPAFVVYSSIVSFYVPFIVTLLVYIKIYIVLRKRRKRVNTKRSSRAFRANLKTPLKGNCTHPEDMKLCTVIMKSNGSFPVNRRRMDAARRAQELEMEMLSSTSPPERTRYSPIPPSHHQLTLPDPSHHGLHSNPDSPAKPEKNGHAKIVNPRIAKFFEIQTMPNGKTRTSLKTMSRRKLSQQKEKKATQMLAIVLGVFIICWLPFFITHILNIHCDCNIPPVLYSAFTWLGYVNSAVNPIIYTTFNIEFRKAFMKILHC

[4] = target: T2, D4 receptor (Homo sapiens, UniProt P21917); assay: receptor binding test, D4 receptor; details: for Ki: cloned receptor membrane, [125I]iodosulpride or [3H]YM-09151-2, 25° C., 1 hour; for Ratio D2/D4: ratio of Ki values
T2 sequence (P21917 1-419): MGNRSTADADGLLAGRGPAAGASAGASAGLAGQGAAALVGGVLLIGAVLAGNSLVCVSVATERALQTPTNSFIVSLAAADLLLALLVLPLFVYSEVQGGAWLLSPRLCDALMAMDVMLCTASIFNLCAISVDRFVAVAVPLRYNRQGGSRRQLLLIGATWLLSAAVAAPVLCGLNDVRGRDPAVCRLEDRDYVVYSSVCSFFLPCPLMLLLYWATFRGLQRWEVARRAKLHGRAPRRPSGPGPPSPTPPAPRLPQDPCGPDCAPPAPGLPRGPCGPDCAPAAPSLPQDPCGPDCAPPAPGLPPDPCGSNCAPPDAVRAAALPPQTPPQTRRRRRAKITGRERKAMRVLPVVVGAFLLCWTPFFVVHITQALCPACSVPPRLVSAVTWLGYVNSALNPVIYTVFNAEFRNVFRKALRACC

[5] = target: T3, D3 receptor (Rattus norvegicus, UniProt P19020); assay: receptor binding test, D3 receptor; details: for Ki: cloned receptor membrane, [125I]iodosulpride or [3H]YM-09151-2, 25° C., 1 hour; for Ratio D2/D3: ratio of Ki values
T3 construct: expressed in transfected cells
T3 sequence (P19020 whole entry): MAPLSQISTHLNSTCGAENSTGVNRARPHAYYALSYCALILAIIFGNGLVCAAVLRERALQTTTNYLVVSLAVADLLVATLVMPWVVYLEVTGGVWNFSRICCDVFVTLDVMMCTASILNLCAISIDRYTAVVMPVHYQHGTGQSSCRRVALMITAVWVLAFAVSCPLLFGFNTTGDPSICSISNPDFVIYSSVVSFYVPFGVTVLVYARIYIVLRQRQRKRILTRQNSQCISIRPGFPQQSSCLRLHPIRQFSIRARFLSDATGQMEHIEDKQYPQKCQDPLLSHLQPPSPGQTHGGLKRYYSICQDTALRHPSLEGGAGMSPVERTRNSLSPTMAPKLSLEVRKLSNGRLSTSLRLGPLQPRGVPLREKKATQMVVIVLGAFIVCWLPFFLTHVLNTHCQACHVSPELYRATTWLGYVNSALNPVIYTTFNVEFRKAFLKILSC
Experimental: Using membrane samples of these cells, affinity of compounds for D2 receptor, D3 receptor and D4 receptor was examined by a receptor binding test. The receptor binding test was carried out in the following manner. A D2 receptor, D3 receptor or D4 receptor membrane sample and [^125 I] iodosulpride or [^3 H] YM-09151-2 (trade name, manufactured by Daiichi Pure Chemicals) were incubated at 25° C. for 1 hour in the presence of each compound to be tested. The reaction solution was filtered through a glass filter to measure the amount of radioisotope on the filter.

[6] = tested on: D2, D3 and D4 subtype receptors; details: existing antipsychotic agents; cited from earlier work

SMILES	effect on negative symptoms ([1]; clinical)	side effects such as extrapyramidal symptoms ([1]; clinical)	ED50 [2]	Ki [3]	Ki [4]	Ratio D2/D4 [4]	Ki [5]	Ratio D2/D3 [5]	relative affinity for D2, D3 and/or D4 receptor [6]	side effects such as extrapyramidal symptoms ([1]; human, in vivo)
CN1CCN(C2=Nc3cc(Cl)ccc3Nc3ccccc32)CC1 [Clozapine]	effective for patients mainly having negative symptoms	small extrapyramidal symptoms	6.8 mg/kg							
COc1cc(OC)c([N+](=O)[O-])cc1C(=O)N[C@H]1CCN(C2C3CCCC2CCC3)C1 (stereo partly drawn) [Example 7, (S)-N-[1-(bicyclo[3.3.1]non-9-yl)-3-pyrrolidinyl]-2,4-dimethoxy-5-nitrobenzamide]				72 nM	1.1 nM	65	1.5 nM	48		
CNc1cc(C(=O)N[C@H]2CCN(C3C4CCCC3CCC4)C2)c(OC)cc1OC (stereo partly drawn) [Example 30, (S)-N-[1-(bicyclo[3.3.1]non-9-yl)-3-pyrrolidinyl]-2,4-dimethoxy-5-methylaminobenzamide hemifumarate]			1.8 mg/kg	34 nM	1.8 nM	19	3.5 nM	9.7		
COc1cc(OC)c(C(=O)N[C@H]2CCN(C3C4CCCC3CCC4)C2)cc1C#N (stereo partly drawn) [Example 19, (S)-N-[1-(bicyclo[3.3.1]non-9-yl)-3-pyrrolidinyl]-5-cyano-2,4-dimethoxybenzamide]				350 nM	2.6 nM	135	4 nM	88		
O=C(CCCN1CCC(O)(c2ccc(Cl)cc2)CC1)c1ccc(F)cc1 [haloperidol]		highly frequent onset of side effects							high affinity for D2 receptor in comparison with D3 receptor and/or D4 receptor	
CCN1CCCC1CNC(=O)c1cc(S(N)(=O)=O)ccc1OC (stereo not drawn) [sulpiride]	certain degree of effects on negative symptoms								its affinity for D3 and/or D4 receptor is similar to its affinity for D2 receptor	relatively small side effects
